{"source": "ChEMBL document CHEMBL1154992", "about": "“New steroidal glycosides from the fruits of Tribulus terrestris” (J Nat Prod, 2000)", "tested_on": "SK-MEL", "assay": "Cytotoxicity against human SK-MEL cells after 48 hrs by neutral red staining", "format": "functional, cell-based"}
{"compound": "C[C@H]1CC[C@@]2(OC1)O[C@H]1C[C@H]3[C@@H]4CC[C@@H]5C[C@@H](O[C@@H]6O[C@H](CO)[C@H](O[C@@H]7O[C@H](CO)[C@@H](O)[C@H](O)[C@H]7O)[C@H](O)[C@H]6O[C@@H]6O[C@@H](C)[C@H](O)[C@@H](O)[C@H]6O)CC[C@]5(C)[C@H]4CC[C@]3(C)[C@H]1[C@@H]2C", "values": [{"measurement": "IC50", "value": 6.7, "unit": "µg/mL"}]}
